Key:
Hsp90 (human Hsp90α) [1] = biological target: T1, Hsp90 (human Hsp90α) (Homo sapiens, UniProt P07900, H210A); assay: isothermal titration calorimetry; type: binding
T1 construct: gene HSP90AA1; purified full-length Hsp90α, C-terminally dimerized homodimer

Hsp90 (human Hsp90α) [2] = biological target: T2, Hsp90 (human Hsp90α) (Homo sapiens, UniProt P07900); assay: isothermal titration calorimetry; type: binding
T2 construct: gene HSP90AA1; purified full-length Hsp90α, C-terminally dimerized homodimer

For `Nc1ncnc2c1ncn2[C@@H]1O[C@H](COP(=O)(O)OP(=O)(O)NP(=O)(O)O)[C@@H](O)[C@H]1O` [AMPPNP], the Kd (Hsp90 (human Hsp90α) [1]) was 170 ± 9.8 µM and the Kd (Hsp90 (human Hsp90α) [2]) was 220 ± 37 µM.

From article PMC6561935, “Hsp90 middle domain phosphorylation initiates a complex conformational program to recruit the ATPase-stimulating cochaperone Aha1” (Nature Communications, 2019)
